The values below are quoted from earlier work in US20120022114A1, “Low-dose, non-irritating nicotine nasal composition to reduce the desire to smoke” (Laboratorio Pablo Cassara S.R.L., priority 2009, published 2012).

For this data set the following is noted: when inhaled; on average.

For the molecule `CN1CCCC1c1cccnc1` (stereo not shown) [nicotine, Nicotine], the “Time for the substance to reach the brain” value is listed as “about seven”.
